According to patent US20230271923A1, “IMAGING AND TARGETING PROGRAMMED DEATH LIGAND-1 (PD-LI) EXPRESSION” (The Johns Hopkins University, priority 2020, published 2023):
Where a SMILES comes first, the peptide text is derived from it. Bridges are numbered along the chain shown (N, C = ends). [ ]: non-standard residue; d: D form. The star is where a group is joined. Trp(1-CH2COOH) = N[C@@H](Cc1cn(CC(=O)O)c2ccccc12)C(=O)O; X1 = O=C(O)CN1CCN(CC(=O)O)CCN(Cc2ccc(NC(=S)*)cc2)CC1; Hyp = O=C(O)[C@@H]1C[C@@H](O)CN1; NMeNle = CCCC[C@H](NC)C(=O)O; NMeA = CN[C@@H](C)C(=O)O

What was measured:
PD-L1 binding to PD-1 = PD-L1 binding to PD-1 (Homo sapiens, UniProt Q9NZQ7); assay: competitive PD-1:PD-L1 inhibition assay (HTRF PD1/PD-L1 binding assay)
Method: To modify DK221 for radiolabeling, a bifunctional chelator, e.g., NCS-MP-NODA, was conjugated to the free lysine amine to generate DK222. The NODA chelator was used for radiofluorination to produce [^18F]DK222, as well as a non-radioactive analog [^19F]DK222. (FIG. 1A, FIG. 10 and FIG. 11). A competitive PD-1:PD-L1 inhibition assay was performed to characterize binding affinity of the peptide analogs to PD-L1. […] [^18F]Fluoride-radiolabeling of peptides and small molecules by aluminum fluoride (AlF) method is gaining attention due to the ease of synthesis and the potential to retain the hydrophilicity of the binding moiety. McBride et al., 2010; Kumar et al., 2018. The radiolabeled analog, [^18F]DK222 was synthesized by AlF method in good radiochemical yields (34.85±1.7%, n=62), in vitro stability, and moderate specific activity of 284±56 mCi/μmol (10.51±2.07 GBq/μmol, n=25). […] (FIG. 12, FIG. 13 and FIG. 14).

hPD-L1/CHO xenografts = conditions: in vivo
[1] = circulating half-life; cited from earlier work
PD-L1 = PD-L1 (Homo sapiens, UniProt Q9NZQ7); conditions: cited from earlier work
LOX-IMVI tumors = assay: aPD-L1 mAb dosing studies, accessible PD-L1 levels by [^18F]DK222 uptake; assay type: in vivo, NSG mice; conditions: for reduction in [^18F]DK222 uptake in tumors vs vehicle: 24 hour before tracer, ex vivo
Method: To confirm the in vitro observations in vivo, NSG mice bearing LOX-IMVI tumors were treated with a single dose of 0.3 or 20 mg/kg of Atezolizumab, administered intravenously as a bolus, 24 hour before [^18F]DK222 injection (FIG. 5B, FIG. 5C and FIG. 5D). […] Importantly, there was a modest reduction in signal intensity when a low 0.3 mg/kg dose of Atezolizumab was used.
The aim of this experiment was to evaluate the potential of [^18F]DK222 to detect the heterogeneity in binding of different mAbs, thus proving in principle that it can be used to guide the choice between the multiple mAbs available for treatment. […] Separate groups of animals were injected with a single 1 mg/kg dose of (only) one of these mAbs, and after either 24 or 96 hours, each group was injected with [^18F]DK222, imaged, or sacrificed and the [^18F]DK222 signal was quantified (FIG. 6A). The difference in lower [^18F]DK222 signal, at 24 hours between any PD-L1 mAb vs Nivolumab constitutes the saturation binding of the PD-L1 mAb. On the other hand, the higher [^18F]DK222 signal at 96 hours versus that at 24 hours represents loss of the mAb from its binding site, making more PD-L1 accessible to [^18F]DK222. The experiment was repeated in two different tumor models: LOXIMVI and MDAMB231.
1.3.17 aPD-L1 mAb dosing studies. To determine the effect of antibody dose on accessible PD-L1 levels in the tumor, LOX-IMVI tumor-bearing mice were treated with a single intravenous bolus dose of Atezolizumab (0.3 or 20 mg/Kg) and 24 hours later mice were used for imaging (n=3-4) and biodistribution (n=6-8) studies.
Anti PD-1 antibody Nivolumab (1 mg/kg) and saline were used as controls. Mice treated for 24 h with therapeutic mAbs, or saline as a control, were injected with 200 μCi of [^18F]DK222 in 200 μL of saline intravenously, and PET images were acquired 1 hour after the injection of the radiotracer. Due to the many number of groups and mice involved, saline and Nivolumab-treated controls were included in every experiment, and data from multiple experiments were pooled. Study was repeated in MDAMB231 tumor-bearing mice with only biodistribution measurements.

[2] = system: PD-L1 levels in melanoma cells; assay: effect of IFNγ treatment on PD-L1 levels by flow cytometry; assay type: cell-based, human
Method: First, the effect of adaptive immune response on the PD-L1 expression in melanoma cells was investigated by assessing changes in PD-L1 levels induced by IFNγ treatment. LOX-IMVI, A375, and MeWO melanoma cells treated with IFNγ were analyzed for changes in PD-L1 levels.
1.3.8 Detection of PD-L1 expression by flow cytometry. Cells were evaluated for PD-L1 surface expression by direct staining of 2×10^5 cells in 100 μL PBS with Cy5-Atezolizumab, for 30 min at 4° C. Cy5-Atezolizumab was prepared as described previously. Kumar et al., 2019. Cells were then washed and analyzed for mean fluorescence intensity (MFI) by flow cytometry. Adherent cells were detached using enzyme-free cell dissociation buffer (Thermo Fisher Scientific, Waltham, Mass.). 1.3.9 In vitro binding assays with [^18F]DK222. In vitro binding of [^18F]DK222 to hPD-L1 MDAMB231, MeWo, A375, Sum149, and CHO cells was determined by incubating 1×10^6 cells with approximately […] of [^18F]DK222 in the presence, or absence, of 1 μM of DK222 or 60 nM mAbs for 30 min at 4° C. After incubation, cells were washed three times with ice cold PBS containing 0.1% Tween20 and counted on an automated gamma counter (1282 Compugamma CS, Pharmacia/LKBNuclear, Inc., Gaithersburg, Md.). […] All cell radioactivity uptake studies were performed in quadruplicate for each cell line and repeated three times.

A375 melanoma xenografts = assay: aPD-1 mAb dosing study, [^18F]DK222 uptake in A375 tumors; assay type: in vivo; conditions: huPBMC mice, single dose aPD-1 mAb 12 mg/kg, one week
Method: A humanized mouse model was used to quantify the differences in tumor PD-L1 levels as a measure of adaptive immune response to treatment with different aPD-1 mAbs. NSG mice humanized with PBMCs (huPBMC) bearing A375 melanoma xenografts were treated with a single dose of aPD-1 mAbs (12 mg/kg). Following one week of treatment, tumor PD-L1 levels were measured by [^18F]DK222-PET and by ex vivo counting 24 hours later (FIG. 4A). As controls, tumor-bearing huPBMC mice treated with saline and NSG mice treated with Pembrolizumab and Nivolumab were included.
1.3.14 aPD-1 mAb dosing studies. huPBMC mice acquired from JAX labs were implanted subcutaneously with 2×10^6 A375 cells in the rostral end. Seven days after cell inoculation (average tumor volume=80±15 mm^3), mice were randomized and treated with a single 12 mg/kg dose of Nivolumab or Pembrolizumab injected intravenously (n=9/group). huPBMC mice treated with saline (n=4-5/group). or NSG mice treated with 12 mg/kg dose of Nivolumab or Pembrolizumab were used as controls. Seven days following treatment, [^18F]DK222 PET scans were acquired on at least 3-5 mice per group. […]
1.3.15 Flow cytometry analysis. […] Cells were counted and 1×10^6 cells were resuspended in 100 μL Live/Dead aqua solution (ThermoFisher #L34965, 2 μL reconstituted with 2 mL PBS) in a 96 well plate. […]

Sequence of PD-L1 binding to PD-1 (Q9NZQ7 19-238 limits assumed): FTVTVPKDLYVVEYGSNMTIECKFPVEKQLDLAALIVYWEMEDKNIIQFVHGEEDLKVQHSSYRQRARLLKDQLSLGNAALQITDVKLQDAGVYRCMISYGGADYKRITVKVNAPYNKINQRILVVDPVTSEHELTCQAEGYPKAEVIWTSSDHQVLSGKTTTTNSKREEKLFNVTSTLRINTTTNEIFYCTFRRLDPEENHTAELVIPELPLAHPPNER
Sequence of PD-L1 (Q9NZQ7 19-290): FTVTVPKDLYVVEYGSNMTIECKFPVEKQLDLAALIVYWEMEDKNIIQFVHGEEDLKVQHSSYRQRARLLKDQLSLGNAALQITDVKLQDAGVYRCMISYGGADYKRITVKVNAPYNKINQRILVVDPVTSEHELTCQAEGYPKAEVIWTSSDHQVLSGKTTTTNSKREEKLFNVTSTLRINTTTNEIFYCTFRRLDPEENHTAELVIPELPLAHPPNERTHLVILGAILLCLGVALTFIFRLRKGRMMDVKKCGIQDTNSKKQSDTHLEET

**Q.** What does the source list for `CCCC[C@H]1C(=O)N(C)[C@@H](CCCC)C(=O)N[C@@H](CCCCNC(=S)Nc2ccc(CN3CCN(CC(=O)O)CCN(CC(=O)O)CC3)cc2)C(=O)N[C@H](C(=O)NCC(N)=O)CSCC(=O)N[C@@H](Cc2ccc(O)cc2)C(=O)N(C)[C@@H](C)C(=O)N[C@@H](CC(N)=O)C(=O)N2CCC[C@H]2C(=O)N[C@@H](Cc2cnc[nH]2)C(=O)N[C@@H](CCC(=O)O)C(=O)N2C[C@H](O)C[C@H]2C(=O)N[C@@H](Cc2c[nH]c3ccccc23)C(=O)N[C@@H](CO)C(=O)N[C@@H](Cc2cn(CC(=O)O)c3ccccc23)C(=O)N1C` [DK222] ({CH2CO}-Y[NMeA]NPHE[Hyp]WS[Trp(1-CH2COOH)][NMeNle][NMeNle]K(X1)CG-NH2; thioether N-14)?
**A.** IC50 (PD-L1 binding to PD-1): 28 nM; inhibit PD1:PD-L1 interaction (PD-L1 binding to PD-1; protein-based assay): at nanomolar concentrations

**Q.** Which PET image contrast (hPD-L1/CHO xenografts) does the source give for `CCCC[C@H]1C(=O)N(C)[C@@H](CCCC)C(=O)N[C@@H](CCCCNC(=O)c2ccc([18F])nc2)C(=O)N[C@H](C(=O)NCC(N)=O)CSCC(=O)N[C@@H](Cc2ccc(O)cc2)C(=O)N(C)[C@@H](C)C(=O)N[C@@H](CC(N)=O)C(=O)N2CCC[C@H]2C(=O)N[C@@H](Cc2cnc[nH]2)C(=O)N[C@@H](CCC(=O)O)C(=O)N2C[C@H](O)C[C@H]2C(=O)N[C@@H](Cc2c[nH]c3ccccc23)C(=O)N[C@@H](CO)C(=O)N[C@@H](Cc2cn(CC(=O)O)c3ccccc23)C(=O)N1C` [[^18F]DK221-Py] here?
**A.** The PET image contrast was “poor image contrast”.

**Q.** With Atezolizumab: aPD-L1 mAb, isotype IgG1κ as the compound, how does the t1/2 [1] read?
**A.** The t1/2 was 27 days.

**Q.** What about the Kd (PD-L1) of the same compound?
**A.** The Kd was 0.4 nM.

**Q.** And the “reduction in [^18F]DK222 uptake in tumors vs vehicle” value (LOX-IMVI tumors; 0.3 mg/kg single i.v. dose)?
**A.** Its value is 32%.

**Q.** And the “reduction in [^18F]DK222 uptake in tumors vs vehicle” value (LOX-IMVI tumors; 20 mg/kg single i.v. dose)?
**A.** Its value is 89%.

**Q.** With Avelumab: aPD-L1 mAb, IgG1λ as the compound, how does the t1/2 [1] read?
**A.** The t1/2 was 6.1 days.

**Q.** What does the source list for Durvalumab: aPD-L1 mAb?
**A.** t1/2 [1]: 18 days; Kd (PD-L1): 0.022 nM; accessible PD-L1 levels reduced (LOX-IMVI tumors; 1 mg/kg mAb, LOX-IMVI tumors, 24 h and 96 h): ≥ 70%

**Q.** With “IFNγ: cytokine used to treat melanoma cells to induce PD-L1” as the compound, how does the “increase in PD-L1 levels” value ([2]; A375 cells) read?
**A.** The value was “four-fold”.

**Q.** And the “increase in PD-L1 levels” value ([2]; LOX-IMVI cells)?
**A.** Its value is “two”.

**Q.** And the “change in PD-L1 levels” value ([2]; MeWo cells)?
**A.** Its value is “No differences”.

**Q.** With “Nivolumab: aPD-1 mAb [reference compound]” as the compound, how does the “increase in median [^18F]DK222 uptake compared to NSG mice” value (A375 melanoma xenografts) read?
**A.** Its value is 148%.

**Q.** And the “mean LOX-IMVI tumor [^18F]DK222 uptake” value (LOX-IMVI tumors; 1 mg/kg mAb, 24 hours)?
**A.** The value was “approximately 20 % ID/g”.

**Q.** Which “increase in median [^18F]DK222 uptake compared to NSG mice” value (A375 melanoma xenografts) does the source give for “Pembrolizumab: aPD-1 mAb [reference compound]” here?
**A.** The value was 85%.
